According to patent US12502369B2, “Methods of cancer treatment” (K-GEN, INC., priority 2015, dated 2025):
“Also recorded” adds a separate entry of the source.

Columns and labels:
[1] = test system: PKC isoforms in A549 cells; assay: Activation of PKC isoforms, Western blot, A549; assay type: cell-based; conditions: 30 minutes
Method: (§1) A549 lung cancer cells (˜3 million cells) were seeded in 10 cm tissue culture dishes and grown overnight. Cells were then treated with different drugs at indicated concentrations (see FIG. 9A for global activation of PKC and FIG. 10 for activation of PKC isoforms) for 30 minutes. Panc2.13 pancreatic cells (˜5 million) were seeded and treated as in FIG. 9B for global activation of PKC. Cell lysate preparation, protein quantitation, SDS-PAGE, and Western blotting procedures are described in Example 2. Primary antibodies used in this Example and later Examples of this application are shown in Table A. Western blot membranes were scanned using Odyssey® Imaging System (Licor Biosciences) if secondary antibodies Anti-mouse IgG Dylight 800 conjugate or Anti-rabbit IgG DyLight 680 conjugate (1:10000)(Cell signaling or similar IR 2nd antibodies from different vendors) were used. Alternatively, Imagequant LAS4000 (GE) was used to scan membranes if secondary antibodies Anti-mouse IgG HRP conjugate or Anti-rabbit IgG HRP conjugate (dilutions from 1:2000-1:10000) were used.

PKCδ = PKCδ Tyr311 phosphorylation in A549, HCT116, SW620, Panc02.13 cells, Western blot; assay type: cell-based; conditions: 30 minutes
Method: (§2) Non-cancerous lung fibroblast cell line HFL-1 or cancer cells (2-8 million cells) were seeded in 10 cm dishes and grown overnight so that the cells were about 40-80% confluent before treatment with the compound. Cells were then treated with different drugs at indicated concentrations (see descriptions for FIG. 11 and FIG. 12) for 30 minutes. Cell lysate preparation, protein quantitation, SDS-PAGE, and Western blotting procedures are described in Example 2 and 4. Primary antibodies used in this Example and later Examples of this application are shown in Table A. Secondary antibodies Anti-mouse IgG HRP conjugate or Anti-rabbit IgG HRP conjugate (dilutions from 1:2000-1:10000) were used. Western blot membranes were scanned using Imagequant LAS4000 (GE). The results are shown in FIG. 11A and FIG. 11B for HFL-1 cells and FIG. 11C and FIG. 12 for A549 cells.

[2] = literature reports; cited from earlier work
[3] = test system: PKC isoforms in Panc2.13 cells; assay: Time course of activation of PKC isoforms in Panc2.13; assay type: cell-based; conditions: extended periods (16 h and 24 h), K102 0.1 μM, K103 0.01 μM versus K101A
Method: Cells of pancreatic cancer cell line Panc2.13 were seeded as described above, and the cell confluence was between 40-80% the next day. […] Phosphorylation at multiple PKC isoforms, such as Ser744/748 or Ser916 for PKCμ, phosphorylation at Thr638/641 for PKCα/β, phosphorylation at Ser660 for PKCβII (pan-PKC), phosphorylation at Ser643/676 for PKCδ/θ, and phosphorylation at Thr505 for PKCδ, were detected.

[4] = test system: K-Ras mutant pancreatic, lung, and colon cancer cell lines, leukemia cell lines; assay: Proliferation assays, panel of cancer cell lines (summary statements); assay type: cell-based
Method: Briefly, cells at a density of 1,000-10,000 cells/well were seeded in 96-well plates and incubated at 37′C for 24 hours. A series of 9 different concentrations of compound stocks (500×) were created by 3-fold serial dilution in DMSO. These compounds were further diluted in culture media and then added to cells so that the final DMSO concentration was 0.2%. After 96 hours of incubation, 50 μL of CellTiter Glo reagent (Promega) was added to each well and luminescence was measured after 10 minutes using EnVision (PerkinElmer). […] The dose range for most compounds was 4.6 nM-30 μM. The dose ranges for some compounds were adjusted downward to 0.46 nM-3 μM or 0.08 nM-0.5 μM or 0.03 nM-0.2 μM. Luminescence from cells treated with […] alone was set as Max and % of inhibition was calculated as follows: Inhibition %=(Max-Sample value)/Max*100. Data was analyzed using XL-fit software (ID Business Solutions Ltd.) and EC50, relative EC50, and % of top inhibition were calculated. The results are shown in Tables 3-6 for pancreatic cancer, lung cancer, colon/gastric cancer, and leukemia cell lines.

PKCμ = PKCμ phosphorylation in A549, HCT116, SW620, Panc02.13 cells, Western blot; assay type: cell-based; conditions: 30 minutes
Method: as §2, with “(GE).” for “(GE). The results are shown in FIG. 11A and FIG. 11B for HFL-1 cells and FIG. 11C and FIG. 12 for A549 cells.”

[5] = test system: PKC substrates in A549 cells; assay: Global PKC activation (phosphorylated PKC substrates), Western blot, A549; assay type: cell-based; conditions: 30 minutes, Phospho-PKC substrate Motif MultiMab
Method: as §1

A549 cells = assay: Soft agar colony formation assay; assay type: cell-based
Method: To prepare the base agar layer (0.6%), melted 1.2% agar solution was mixed 1:1 (v/v) with 2×DMEM/20% FBS medium in a tube by inverting several times and 50 μL of the mixture was immediately transferred to a well in a 96-well flat-bottom microplate. The plate was placed at 4° C. for 30 minutes to allow the base agar layer to solidify. Then, the cell agar layer (agar 0.4%) was prepared by transferring 75 μL of the cell and agar mixture containing 1:1:1 (v/v/v) of 1.2% agar solution, 2×DMEM/20% FBS and cell suspension (0.4-4×10^5/mL) to each well of the plates so that each well contained 1000-10000 cells per well. The plates were placed at 4° C. for 15 minutes and then 75 μL of media were added to each well. After incubating the plates overnight in a CO2 incubator, 50 μL of media with or without 5× final concentrations of compounds were added to each well. Each compound was tested in 9-point 3-fold dilution series. The plates were incubated for 7-10 days at 37° C. At the end of incubation period, 28 μL of Calcein AM solution (5 μM) was added to the center of each well. The plates were incubated at 37° C. for 45 minutes before scanning on Acumen (TTP Labtech). Each compound was tested in triplicates. Data was analyzed and compound EC50s were calculated using GraphPad Prism 5.

[6] = test system: PKC substrates in Panc2.13 cells; assay: Global PKC activation (phosphorylated PKC substrates), Western blot, Panc2.13; assay type: cell-based; conditions: Phospho-(Ser) PKC Substrate Antibody
Method: as §1

[7] = test system: PKC isoforms and Erk1/2 in A549 cells; assay: PKC inhibitor effect on PKC activator-mediated phosphorylation of PKCs and Erk1/2, A549; assay type: cell-based; conditions: 30 minutes
Method: To assay if PKC inhibitors have any effects on the PKC activator-mediated phosphorylation of PKCs, A549 cells were pre-treated with DMSO, PKC inhibitors Go6983 (0.3 μM or 1 μM) or Sotrastaurin (0.3 μM or 1 μM) for 30 minutes before adding PKC activators K101A (1 μM) or K102 (0.1 μM) for another 30 minutes (FIG. 22). Cell lysis, protein quantitation, and Western blot analysis were performed as described above in Example 2 and 4. […] Phosphorylation of PKCα/β at Thr638/641 was not affected by the inhibitors (FIG. 22A). […] These PKC inhibitor studies indicate that blocking phosphorylation and activation of various isoforms of PKC is correlated with inhibition of the anti-proliferative effects of the PKC activators.
Cell lysis, protein quantitation, and Western blot analysis were performed as described above in Example 2 and 4. […] These PKC inhibitor studies also indicate that phosphorylation and activation of novel PKC isoforms and PKCμ is required for the anti-proliferative effects of the PKC activators whereas phosphorylation of PKCδ at Tyr311 is correlated with inhibition of the anti-proliferative effects of PKC activators.

[8] = test system: PKC isoforms and Erk1/2 in Mino and Namalwa cells; assay: PKC inhibitor effect on K101A-mediated phosphorylation of PKCs and Erk1/2 in Mino and Namalwa cells; assay type: cell-based
Method: Cell lysis, protein quantitation, and Western blot analysis were performed as described above in Example 2 and 4. […] Again, these PKC inhibitor studies indicate the anti-proliferative effects of the PKC activators appear to be positively associated with phosphorylation and activation of novel PKC isoforms and PKCγ, and negatively associated with the phosphorylation of PKCδ at Tyr311.

Mino cells = assay: Proliferation assay, PKC inhibitors in combination with PKC activators, Mino; assay type: cell-based; conditions: Sotrastaurin 0.3/1 μM, Go6983 0.1/1 μM, Go6976 0.3/1 μM, Enzastaurin 1/3 μM
Method: PKC inhibitor studies were performed as described in Example 8, 9, and 10. […] Thus, PKC activator-mediated anti-proliferation effects may be dependent on activation of PKC isoforms from the novel PKC class.

A549 = assay: Proliferation assay, PKC inhibitor in combination with PKC activators, A549; assay type: cell-based; conditions: Go6983 0.1 μM or 1 μM with K101A or K102
Method: To assess if activation of different classes of PKC is required for anti-proliferation effect of PKC activators, Sotrastaurin, a PKC inhibitor targeting both conventional and novel classes of PKC, was tested in combination with PKC activators in the proliferation assays. Proliferation assay in lung cancer cell line A549 (FIG. 15) and in pancreatic cell line MiaPaCa-2 (FIG. 16) was performed as described in Example 1. […] Then, K101A or K102 was tested in 8- or 9-point titrations in the presence of DMSO or Sotrastaurin (0.1 μM or 1 μM). […] Thus, PKC activator-mediated anti-proliferation effects are dependent on activation of PKC isoforms from conventional, or novel, or both classes of PKCs.
To assess if PKC activation is required for anti-proliferation effect of PKC activators in cancer cell lines that are sensitive to these activators, a pan-PKC inhibitor Go6983, targeting classes of PKCs (conventional, novel, atypical, and PKCμ), was tested in combination with PKC activators in the proliferation assays. Proliferation assay in lung cancer cell line A549 (FIG. 17) and in pancreatic cell line MiaPaCa-2 (FIG. 18) was performed as described in Example 1. […] Then, K101A or K102 was tested in 8- or 9-point titrations in the presence of DMSO or Go6983 (0.1 μM or 1 μM). […] Thus, PKC activation is required for anti-proliferation effect of PKC activators.
Proliferation assay was performed as described in Example 1. […] Thus, PKC activator-mediated anti-proliferation effects appear mainly dependent on activation of novel PKC isoforms.

Namalwa cells = assay: Proliferation assay, PKC inhibitors in combination with PKC activators, Namalwa; assay type: cell-based; conditions: Sotrastaurin 0.3/1 μM, Go6983 0.1/1 μM, Go6976 0.3/1 μM, Enzastaurin at very high concentration of 10 μM
Method: PKC inhibitor studies were performed as described in Example 15. […] Thus, PKC activator-mediated anti-proliferation effects may be dependent on activation of novel PKC isoforms.

MiaPaCa-2 = assay: Proliferation assay, PKC inhibitor in combination with PKC activators, MiaPaCa-2; assay type: cell-based; conditions: Go6983 0.1 μM or 1 μM with K101A or K102
[9] = inhibitor pre-treatment 0.3 μM or 1 μM

CCCCCCCCCCCCCC(=O)O[C@@H]1[C@@H](C)[C@@]2(O)[C@@H](C=C(CO)C[C@]3(O)C(=O)C(C)=C[C@@H]23)[C@@H]2C(C)(C)[C@]12OC(C)=O [Compound K-103, 12-O-Tetradecanoylphorbol-13-acetate]
P-PKCδ (Thr505) and P-PKCδ/θ (Ser643/676) [1]: potently increased | P-PKC (pan)(βII Ser660) and P-PKCα/β (Thr638/641) ([1]; high levels already in DMSO treated cells): no further increases | PKCδ activation, phosphorylation at Tyr311 (PKCδ): observed for PKC activator insensitive cell lines HCT116 and SW620 but not as significantly for sensitive cell lines A549 and Pan 02,13; also recorded: observed for cell lines HCT116 and SW620 but not as significantly for cell lines A549 and Panc02.13 | tumor promotion [2]: tumor-promoting | reducing the phosphorylation at βII Ser660 of PKC (pan), to a lesser extent Thr638/641 of PKCα/β [3]: more potent | potency in proliferation inhibition relative to prostratin [4]: more potent in proliferation inhibition | PKCμ activation, phosphorylation at Ser744/748 (PKCμ): observed for all four cancer cell lines | PKCμ activation, phosphorylation at Ser916 (PKCμ): observed primarily in cell lines A549 and Pan 02,13; also recorded: observed primarily in cell lines A549 and Panc02.13 | phosphorylation of PKC substrates (global activation of PKC) [5]: potently elevated | number of colonies formed in soft agar (A549 cells; 7-10 days, 9-point dilution series): reduced the number of colonies | potency rank in soft agar assay (A549 cells; K103, followed by K102, K101A, and K101E): Most potent compound | phosphorylation of PKC substrates (global activation of PKC) [6]: potently elevated

COc1ccc2c(c1)c(C1=C(c3c[nH]c4ccccc34)C(=O)NC1=O)cn2CCCN(C)C [Go6983]
K101A- and K102-induced phosphorylation of Erk1/2 [7, 9]: blocked dose-dependently | K101A- or K102-induced phosphorylation, P-PKCμ (Ser916), P-PKCμ (Ser744/748), P-PKCδ (Thr505) [7, 9]: blocked in a dose-dependent manner | Phosphorylation of PKCα/β at Thr638/641 [7, 9]: not affected | K101A- or K102-induced phosphorylation of PKCμ at Ser916 or Ser744/748, PKCδ at Thr505, and Erk ([7]; inhibitor pre-treatment 1 μM): completely abolished | phosphorylation of PKCδ at Tyr311 induced by PKC inhibitor ([7]; inhibitor pre-treatment 1 μM): induced phosphorylation of PKCδ at Tyr311 | phosphorylation of PKCδ at Tyr311 induced by PKC inhibitor ([8]; inhibitor pre-treatment 30 minutes): induced robust phosphorylation | K101A-induced phosphorylation of PKCμ at Ser916 or Ser744/748, PKCδ at Thr505, and Erk ([8]; inhibitor pre-treatment 30 minutes (Go6983, Sotrastaurin 1 μM)): completely abolished | effect on PKC activator-mediated anti-proliferation effects (Mino cells): dose-dependently blocked | effect on PKC activator-mediated anti-proliferation effects (A549): inhibited the PKC activator-mediated anti-proliferation effects in a dose-dependent manner | effect on PKC activator-mediated anti-proliferation effects (Namalwa cells): dose-dependently blocked | effect on PKC activator-mediated anti-proliferation effects (MiaPaCa-2): inhibited the PKC activator-mediated anti-proliferation effects in a dose-dependent manner
